Data: patent publication US6949542B2, “Dihydro-benzo[b][1,4]diazepin-2-one derivatives” (Hoffman-La Roche Inc., priority 2002, dated 2005)

CCCN(C)c1cc2c(cc1C(F)(F)F)NC(=O)CC(c1cccc(-c3cncnc3)c1)=N2 [Example 99, 7-(Methyl-propyl-amino)-4-(3-pyrimidin-5-yl-phenyl)-8-trifluoromethyl-1,3-dihydro-benzo[b][1,4]diazepin-2-one]
melting point: 197 °C

O=C1CC(c2cccc(-c3ccnc(C4CCCC4)c3)c2)=Nc2ccc(C(F)(F)F)cc2N1 [Example 352, 4-[3-(2-Cyclopentyl-pyridin-4-yl)-phenyl]-8-trifluoromethyl-1,3-dihydro-benzo[b][1,4]diazepin-2-one]
melting point: 165 to 167 °C

COCCNc1nc(C)cc(-c2cccc(C3=Nc4cc(C)c(Cl)cc4NC(=O)C3)c2)n1 [Example 325, 8-Chloro-4-{3-[2-(2-methoxy-ethylamino)-6-methyl-pyrimidin-4-yl]-phenyl}-7-methyl-1,3-dihydro-benzo[b][1,4]diazepin-2-one]
melting point: 222 to 224 °C

Cc1cc2c(cc1Cl)NC(=O)CC(c1cccc(-c3ccc(C4CC4)nc3)c1)=N2 [Example 161, 8-Chloro-4-[3-(6-cyclopropyl-pyridin-3-yl)-phenyl]-7-methyl-1,3-dihydro-benzo[b][1,4]diazepin-2-one]
melting point: 198 to 199 °C

Cc1cc(-c2cccc(C3=Nc4cc(C)c(Cl)cc4NC(=O)C3)c2)nc(N)n1 [Example 316, 4-[3-(2-Amino-6-methyl-pyrimidin-4-yl)-phenyl]-8-chloro-7-methyl-1,3-dihydro-benzo[b][1,4]diazepin-2-one]
melting point: 242 to 243 °C

O=C1CC(c2cccc(-c3ccnc(CO)c3)c2)=Nc2cc(C(F)(F)F)c(C(F)(F)F)cc2N1 [Example 417, 4-[3-(2-Hydroxymethyl-pyridin-4-yl)-phenyl]-7,8-bis-trifluoromethyl-1,3-dihydro-benzo[b][1,4]diazepin-2-one]
melting point: 209 °C

Cc1cc2c(cc1C(F)(F)F)NC(=O)CC(c1cccc(-c3ccnc(C(F)(F)F)c3)c1)=N2 [Example 265, 7-Methyl-8-trifluoromethyl-4-[3-(2-trifluoromethyl-pyridin-4-yl)-phenyl]-1,3-dihydro-benzo[b][1,4]diazepin-2-one]
melting point: 247 °C

O=C1CC(c2cccc(-c3cnccn3)c2)=Nc2cc(Cl)c(C(F)(F)F)cc2N1 [Example 91, 7-Chloro-4-(3-pyrazin-2-yl-phenyl)-8-trifluoromethyl-1,3-dihydro-benzo[b][1,4]diazepin-2-one]
melting point: 235 °C

Cc1ncccc1-c1cccc(C2=Nc3ccc(F)cc3NC(=O)C2)c1 [Example 18, 8-Fluoro-4-[3-(2-methyl-pyridin-3-yl)-phenyl]-1,3-dihydro-benzo[b][1,4]diazepin-2-one]
melting point: 219 to 220 °C

Cc1cc(-c2cccc(C3=Nc4cc(N(C)C)c(C(F)(F)F)cc4NC(=O)C3)c2)ncn1 [Example 310, 7-Dimethylamino-4-[3-(6-methyl-pyrimidin-4-yl)-phenyl]-8-trifluoromethyl-1,3-dihydro-benzo[b][1,4]diazepin-2-one]
melting point: 232 to 236 °C

CNc1nc(C)cc(-c2cccc(C3=Nc4cc(C)c(C(F)(F)F)cc4NC(=O)C3)c2)n1 [Example 318, 7-Methyl-4-[3-(6-methyl-2-methylamino-pyrimidin-4-yl)-phenyl]-8-trifluoromethyl-1,3-dihydro-benzo[b][1,4]diazepin-2-one]
melting point: 241 to 243 °C

CC(C)N(C)c1cc2c(cc1C(F)(F)F)NC(=O)CC(c1cccc(-c3ccnc(CO)c3)c1)=N2 [Example 370, 4-[3-(2-Hydroxymethyl-pyridin-4-yl)-phenyl]-7-(isopropyl-methyl-amino)-8-trifluoromethyl-1,3-dihydro-benzo[b][1,4]diazepin-2-one]
melting point: 124 °C

CCCN(C)c1cc2c(cc1C(F)(F)F)NC(=O)CC(c1cccc(-c3ccnc(CO)c3)c1)=N2 [Example 369, 4-[3-(2-Hydroxymethyl-pyridin-4-yl)-phenyl]-7-(methyl-propyl-amino)-8-trifluoromethyl-1,3-dihydro-benzo[b][1,4]diazepin-2-one]
melting point: 97 °C

COCCOc1cc2c(cc1C(F)(F)F)NC(=O)CC(c1cccc(-c3ccnc(C)c3)c1)=N2 [Example 242, 7-(2-Methoxy-ethoxy)-4-[3-(2-methyl-pyridin-4-yl)-phenyl]-8-trifluoromethyl-1,3-dihydro-benzo[b][1,4]diazepin-2-one]
melting point: 198 to 199 °C

COCCOc1cc2c(cc1C(F)(F)F)NC(=O)CC(c1cccc(-c3cccnc3)c1)=N2 [Example 208, 7-(2-Methoxy-ethoxy)-4-(3-pyridin-3-yl-phenyl)-8-trifluoromethyl-1,3-dihydro-benzo[b][1,4]diazepin-2-one]
melting point: 190 to 191 °C

O=C1CC(c2cccc(-c3ccccn3)c2)=Nc2cc(OCC(F)(F)F)c(C(F)(F)F)cc2N1 [Example 44, 4-(3-Pyridin-2-yl-phenyl)-7-(2,2,2-trifluoro-ethoxy)-8-trifluoromethyl-1,3-dihydro-benzo[b][1,4]diazepin-2-one]
melting point: 214 °C

CCOc1cc2c(cc1Cl)NC(=O)CC(c1cccc(-c3ccnc(C)c3)c1)=N2 [Example 182, 8-Chloro-7-ethoxy-4-[3-(2-methyl-pyridin-4-yl)-phenyl]-1,3-dihydro-benzo[b][1,4]diazepin-2-one]
melting point: 185 °C

CCOc1cc2c(cc1C(F)(F)F)NC(=O)CC(c1cccc(-c3cc(C)nc(CC)c3)c1)=N2 [Example 250, 7-Ethoxy-4-[3-(2-ethyl-6-methyl-pyridin-4-yl)-phenyl]-8-trifluoromethyl-1,3-dihydro-benzo[b][1,4]diazepin-2-one]
melting point: 215 °C

O=C1CC(c2cccc(-c3cccnc3)c2)=Nc2cc(OCC(F)(F)F)c(Cl)cc2N1 [Example 202, 8-Chloro-4-(3-pyridin-3-yl-phenyl)-7-(2,2,2-trifluoro-ethoxy)-1,3-dihydro-benzo[b][1,4]diazepin-2-one]
melting point: 203 to 204 °C

Cc1cc(C2CC2)ncc1-c1cccc(C2=Nc3ccc(C(F)(F)F)cc3NC(=O)C2)c1 [Example 344, 4-[3-(6-Cyclopropyl-4-methyl-pyridin-3-yl)-phenyl]-8-trifluoromethyl-1,3-dihydro-benzo[b][1,4]diazepin-2-one]
melting point: 119 °C

CCOc1cc2c(cc1Cl)NC(=O)CC(c1cccc(-c3cccnc3)c1)=N2 [Example 181, 8-Chloro-7-ethoxy-4-(3-pyridin-3-yl-phenyl)-1,3-dihydro-benzo[b][1,4]diazepin-2-one]
melting point: 210 °C

COc1cc2c(cc1C(F)(F)F)NC(=O)CC(c1cccc(-c3ccncc3)c1)=N2 [Example 35, 7-Methoxy-4-(3-pyridin-4-yl-phenyl)-8-trifluoromethyl-1,3-dihydro-benzo[b][1,4]diazepin-2-one]
melting point: 225 °C (dec.)

Cc1ccncc1-c1cccc(C2=Nc3ccc(C(F)(F)F)cc3NC(=O)C2)c1 [Example 226, 4-[3-(4-Methyl-pyridin-3-yl)-phenyl]-8-trifluoromethyl-1,3-dihydro-benzo[b][1,4]diazepin-2-one]
melting point: 220 to 221 °C

CC(C)Cc1cc(-c2cccc(C3=Nc4cc(Cl)c(Cl)cc4NC(=O)C3)c2)ccn1 [Example 279, 7,8-Dichloro-4-[3-(2-isobutyl-pyridin-4-yl)-phenyl]-1,3-dihydro-benzo[b][1,4]diazepin-2-one]
melting point: 204 °C

Cc1cncc(-c2cccc(C3=Nc4cc(Cl)c(C)cc4NC(=O)C3)c2)n1 [Example 132, 7-Chloro-8-methyl-4-[3-(6-methyl-pyrazin-2-yl)-phenyl]-1,3-dihydro-benzo[b][1,4]diazepin-2-one]
melting point: 254 °C

O=C1CC(c2cccc(-c3ccccn3)c2)=Nc2cc(F)c(Cl)cc2N1 [Example 52, 8-Chloro-7-fluoro-4-(3-pyridin-2-yl-phenyl)-1,3-dihydro-benzo[b][1,4]diazepin-2-one]
melting point: 197 to 198 °C

CCOc1cc2c(cc1C(F)(F)F)NC(=O)CC(c1cccc(-c3ccc(C)nc3)c1)=N2 [Example 238, 7-Ethoxy-4-[3-(6-methyl-pyridin-3-yl)-phenyl]-8-trifluoromethyl-1,3-dihydro-benzo[b][1,4]diazepin-2-one]
melting point: 210 °C

Cc1ccc(-c2cccc(C3=Nc4ccc(C(F)(F)F)cc4NC(=O)C3)c2)nn1 [Example 14, 4-[3-(6-Methyl-pyridazin-3-yl)-phenyl]-8-trifluoromethyl-1,3-dihydro-benzo[b][1,4]diazepin-2-one]
melting point: 233 °C

CCCN(C)Cc1cc(-c2cccc(C3=Nc4cc(OCC(F)(F)F)c(C(F)(F)F)cc4NC(=O)C3)c2)ccn1 [Example 382, 4-(3-{2-[(Methyl-propyl-amino)-methyl]-pyridin-4-yl}-phenyl)-7-(2,2,2-trifluoro-ethoxy)-8-trifluoromethyl-1,3-dihydro-benzo[b][1,4]diazepin-2-one]
melting point: 155 °C

CCOc1cc2c(cc1C(F)(F)F)NC(=O)CC(c1cccc(-c3cnccc3C)c1)=N2 [Example 231, 7-Ethoxy-4-[3-(4-methyl-pyridin-3-yl)-phenyl]-8-trifluoromethyl-1,3-dihydro-benzo[b][1,4]diazepin-2-one]
melting point: 213 to 214 °C

Cc1ccc(-c2cccc(C3=Nc4cc(OCC(F)(F)F)c(C(F)(F)F)cc4NC(=O)C3)c2)cn1 [Example 239, 4-[3-(6-Methyl-pyridin-3-yl)-phenyl]-7-(2,2,2-trifluoro-ethoxy)-8-trifluoromethyl-1,3-dihydro-benzo[b][1,4]diazepin-2-one]
melting point: 159 °C

C=Cc1cc2c(cc1C(F)(F)F)NC(=O)CC(c1cccc(-c3cc(C)nc(C)c3)c1)=N2 [Example 241, 4-[3-(2,6-Dimethyl-pyridin-4-yl)-phenyl]-8-trifluoromethyl-7-vinyl-1,3-dihydro-benzo[b][1,4]diazepin-2-one]
melting point: 225 to 226 °C

O=C1CC(c2cccc(-c3ccnc(N4CCOCC4)c3)c2)=Nc2cc(OCC(F)(F)F)c(C(F)(F)F)cc2N1 [Example 386, 4-[3-(2-Morpholin-4-yl-pyridin-4-yl)-phenyl]-7-(2,2,2-trifluoro-ethoxy)-8-trifluoromethyl-1,3-dihydro-benzo[b][1,4]diazepin-2-one]
melting point: 189 to 190 °C
